Consider two compounds from patent publication US7521580B1, “Non-cytotoxic synthetic analogues of (1E, 6E)-1, 7-Bis (4-hydroxy-3-methoxyphenyl)-1, 6-heptadiene-3, 5-Dione and therapeutic applications thereof in cystic fibrosis” (Sami Labs Ltd., priority 2008, dated 2009).

SMILES strings stand for the structures. Some results are limits rather than exact numbers.

Series [1] addresses T1, F508del-CFTR chloride channel (Homo sapiens, UniProt P13569, DEL508-508).
T1 construct: endogenous in cells; host or cells: JME/CF15 human nasal airway epithelial cells
Briefly: Radiolabelled iodide efflux, F508del-CFTR chloride channel activity in JME/CF15 cells. In kind it is cell-based. Particulars: 100 μM for 2 hours, stimulated with forskolin 10 μM plus genistein 30 μM. How it is done: (§1) The human nasal airway epithelial cells JME/CF15 were cultured in 24-well plates to 90% confluence. (1E,6E)-1,7-Bis(3,5-di-tert-butyl-4-hydroxyphenyl)-1,6-heptadiene-3,5-dione was added at 100 μM for 2 hours, at 37° C., 5% CO2. After incubation, chloride channel activity was assayed by measuring the rate of radio labelled iodide (125 l) efflux using liquid handling robots. The compound was tested in quadruplicate. Cells were incubated in physiologic solution containing 1 μM Kl and 1 μCi Na 125 l/ml during 1 h at 37° C. Extra cellular 125 l was removed by 3 washes of cells, and the loss of intracellular 125 l is determined by removing the medium with physiological solution every minute for up to 9 min 6. A cocktail of forskolin (10 μM) plus genistein (30 μM) was added at the third minute to stimulate F508del-CFTR chloride channel activity. Statistics and curves were derived at using Graph Pad Software.

The nature of series [2]: MTT assay of cellular cytotoxicity. It counts as cell-based. Particulars: Chinese hamster, CHO-CFTR-wt cells, read-out: TC50; for CC50 at 2 h: 2 h incubation; for CC50 at 24 h: 24 h incubation. The method, then: The cytotoxicity of (1E,6E)-1,7-Bis(3,5-di-tert-butyl-4-hydroxyphenyl)-1,6-heptadiene-3,5-dione (representative of the molecules disclosed in the present invention) was assessed by MTT assay [[3-(4,5-dimethylthiazol-2-yl)-2,5-diphenyl tetrazolium bromide, measuring cellular dehydrogenase activity on CHO-CFTR-wt cell lines. The test is based on the principle that water soluble tetrazolium yellow salt MTT (Sigma®) is converted on purple formazan by mitochondrial dehydrogenase. Cells were grown to confluency in 96-well plates. After incubation with the test compound for 2 or 24 hours, at 37° C., […] of MTT (5 mg/ml) was added. After 4 h of incubation, culture medium was removed and 100 μl of DMSO per well added to solubilise formazan crystals. Optical density (OD) was measured at 570 nm and subtracted to these measured at 630 nm. The amount of purple formazan produced by treated cells is compared with these of untreated control cells (vehicle), dose-response curves were derived using GraphPad Software.

The target in another series is T2, wt-CFTR channel (Homo sapiens, UniProt P13569).
T2 construct: expressed in transfected cells; host or cells: CHO-CFTR-wt cells
Description: Iodide efflux, wild type CFTR chloride channel activity in CHO-CFTR-wt cells. In kind it is cell-based. Particulars: 100 μM acute (no incubation) in presence of Forskolin 1 μM. The method, then: as §1
To test the potency to stimulate wt-CFTR channel activity, CHO-CFTR-wt cells were cultured in 24-well plates to 90% confluence. Iodide efflux experiments were carried as described above. (1E,6E)-1,7-Bis(3,5-di-tert-butyl-4-hydroxyphenyl)-1,6-heptadiene-3,5-dione was added in the third minute in the presence or absence of Forskolin (1 μM). The compound was tested in acute (no incubation) at 100 μM in presence of Forskolin 1 μM. […]

For the next series, the system named is JME/CF15 cells. Description: Intracellular calcium mobilization (Fluo-4, confocal microscopy) in JME/CF15 cells. The following applies: 100 μM during 2 h, absence of extra cellular calcium. In kind it is cell-based, human. The source says:
A number of epithelial chloride channels are calcium dependent. Therefore molecules which increase cytosolic calcium release or reduce calcium re-uptake by the intracellular stores may be beneficial to increase chloride secretion via a calcium-regulated chloride signaling pathway. Alternatively, a decrease in the activity calcium dependant proteins playing a vital role in retaining misfolded F508-CFTR in the ER may also seem a promising strategy in cystic fibrosis therapy.
JME/CF15 cells were loaded with 3 μM Fluo-4 acetoxymethyl (AM)ester for 20 min at room temperature in buffer solution containing: (in mM) 130 NaCl, 5.4 KCl, 2.5 CaCl2, 0.8 MgCl2, 5.6 glucose, 10 Hepes, pH 7.4 adjusted with Tris base), rinsed and allowed to equilibrate for 5-10 min. Ca2+ activity was recorded by confocal laser scanning microscopy using Bio-Rad MRC 1024 equipped with 15 mW Ar/Kr gas laser (Hemel Hempstead, UK). Maximal resolution was obtained with Olympus plan apo X60 oil, 1.4 NA, objective lens. Fluorescence signal collection was performed through the control software Lasersharp 3.2 (Bio-Rad). The resolution time was 30 s for the protocol in which cells are incubated 2 h in the presence of (1E,6E)-1,7-Bis(3,5-di-tert-butyl-4-hydroxyphenyl)-1,6-heptadiene-3,5-dione. All the experiments were performed at minimum on two different cell passages. […]

T2 sequence (P13569 whole entry): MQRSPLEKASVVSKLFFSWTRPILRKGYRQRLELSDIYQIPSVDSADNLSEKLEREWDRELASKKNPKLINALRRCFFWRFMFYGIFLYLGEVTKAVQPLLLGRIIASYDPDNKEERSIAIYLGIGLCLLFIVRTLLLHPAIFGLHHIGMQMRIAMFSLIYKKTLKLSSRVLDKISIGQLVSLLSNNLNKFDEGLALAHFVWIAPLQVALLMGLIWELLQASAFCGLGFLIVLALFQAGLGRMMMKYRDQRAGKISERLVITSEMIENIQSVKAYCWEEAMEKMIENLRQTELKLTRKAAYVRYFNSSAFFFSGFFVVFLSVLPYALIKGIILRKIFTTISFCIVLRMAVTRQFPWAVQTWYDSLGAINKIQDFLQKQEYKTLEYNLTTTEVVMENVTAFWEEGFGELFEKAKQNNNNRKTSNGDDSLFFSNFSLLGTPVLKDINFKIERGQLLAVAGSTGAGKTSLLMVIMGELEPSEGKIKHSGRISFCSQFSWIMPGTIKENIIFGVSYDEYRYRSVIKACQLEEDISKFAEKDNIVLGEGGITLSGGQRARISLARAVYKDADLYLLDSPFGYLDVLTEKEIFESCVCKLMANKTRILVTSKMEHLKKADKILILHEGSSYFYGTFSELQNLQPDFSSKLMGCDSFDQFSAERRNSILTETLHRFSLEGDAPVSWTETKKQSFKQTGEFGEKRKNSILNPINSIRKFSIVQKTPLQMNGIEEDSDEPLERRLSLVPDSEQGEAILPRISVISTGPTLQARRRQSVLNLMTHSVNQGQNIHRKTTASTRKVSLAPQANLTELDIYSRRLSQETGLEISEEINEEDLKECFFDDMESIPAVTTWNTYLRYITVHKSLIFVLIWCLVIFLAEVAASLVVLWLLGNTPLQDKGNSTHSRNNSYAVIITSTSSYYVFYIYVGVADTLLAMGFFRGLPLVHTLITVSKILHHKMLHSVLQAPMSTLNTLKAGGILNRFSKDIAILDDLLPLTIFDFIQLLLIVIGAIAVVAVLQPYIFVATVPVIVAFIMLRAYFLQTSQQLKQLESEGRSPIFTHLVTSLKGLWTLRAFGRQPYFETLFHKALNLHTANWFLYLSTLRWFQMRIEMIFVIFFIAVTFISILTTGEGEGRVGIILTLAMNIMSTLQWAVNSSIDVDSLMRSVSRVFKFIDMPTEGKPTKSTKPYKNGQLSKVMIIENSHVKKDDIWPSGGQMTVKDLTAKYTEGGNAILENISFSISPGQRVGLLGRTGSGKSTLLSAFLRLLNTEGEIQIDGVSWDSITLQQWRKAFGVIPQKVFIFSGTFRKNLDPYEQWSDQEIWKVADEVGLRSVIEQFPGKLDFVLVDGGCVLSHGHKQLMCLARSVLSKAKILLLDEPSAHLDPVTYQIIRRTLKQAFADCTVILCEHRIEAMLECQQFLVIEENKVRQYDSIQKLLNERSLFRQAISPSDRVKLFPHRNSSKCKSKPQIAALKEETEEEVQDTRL
T1 sequence (P13569 with tags, fused parts or gaps DEL508-508): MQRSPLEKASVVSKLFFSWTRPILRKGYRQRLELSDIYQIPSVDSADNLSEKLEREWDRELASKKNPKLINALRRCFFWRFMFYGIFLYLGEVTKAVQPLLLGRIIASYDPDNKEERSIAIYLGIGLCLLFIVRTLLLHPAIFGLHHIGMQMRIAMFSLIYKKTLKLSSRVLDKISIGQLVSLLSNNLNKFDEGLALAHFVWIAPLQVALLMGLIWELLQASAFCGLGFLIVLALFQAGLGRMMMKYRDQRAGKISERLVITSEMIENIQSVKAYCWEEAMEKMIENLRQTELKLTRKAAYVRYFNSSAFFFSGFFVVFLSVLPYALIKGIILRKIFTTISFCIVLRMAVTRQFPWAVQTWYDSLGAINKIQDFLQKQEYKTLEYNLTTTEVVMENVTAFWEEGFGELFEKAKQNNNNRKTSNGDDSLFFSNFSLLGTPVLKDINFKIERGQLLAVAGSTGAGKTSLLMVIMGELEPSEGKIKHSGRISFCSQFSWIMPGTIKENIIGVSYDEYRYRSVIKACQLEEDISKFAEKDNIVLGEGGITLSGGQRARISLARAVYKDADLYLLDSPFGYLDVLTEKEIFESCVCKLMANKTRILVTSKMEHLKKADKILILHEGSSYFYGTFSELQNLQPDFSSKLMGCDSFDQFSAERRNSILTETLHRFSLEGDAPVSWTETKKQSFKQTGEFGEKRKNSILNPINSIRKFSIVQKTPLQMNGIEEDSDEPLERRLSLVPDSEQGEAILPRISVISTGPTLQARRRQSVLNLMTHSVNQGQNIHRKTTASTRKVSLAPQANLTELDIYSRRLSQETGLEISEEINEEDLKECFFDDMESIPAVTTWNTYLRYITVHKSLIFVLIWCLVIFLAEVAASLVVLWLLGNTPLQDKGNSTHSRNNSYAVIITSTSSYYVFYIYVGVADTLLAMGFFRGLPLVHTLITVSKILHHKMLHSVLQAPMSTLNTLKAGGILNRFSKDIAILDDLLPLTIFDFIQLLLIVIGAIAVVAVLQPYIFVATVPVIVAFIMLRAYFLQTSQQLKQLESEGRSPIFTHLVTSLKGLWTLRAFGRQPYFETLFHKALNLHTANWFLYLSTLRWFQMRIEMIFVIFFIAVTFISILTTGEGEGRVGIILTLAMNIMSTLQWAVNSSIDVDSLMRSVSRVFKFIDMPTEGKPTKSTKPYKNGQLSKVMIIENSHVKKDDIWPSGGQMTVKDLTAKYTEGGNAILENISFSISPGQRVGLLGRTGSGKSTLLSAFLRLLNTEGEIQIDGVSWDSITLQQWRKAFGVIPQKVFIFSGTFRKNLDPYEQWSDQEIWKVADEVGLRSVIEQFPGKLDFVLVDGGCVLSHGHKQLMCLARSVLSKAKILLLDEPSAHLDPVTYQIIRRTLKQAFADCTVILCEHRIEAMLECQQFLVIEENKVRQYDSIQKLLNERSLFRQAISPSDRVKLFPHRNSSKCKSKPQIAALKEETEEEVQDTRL

For `CC(C)(C)c1cc(/C=C/C(=O)CC(=O)/C=C/c2cc(C(C)(C)C)c(O)c(C(C)(C)C)c2)cc(C(C)(C)C)c1O` [(1E,6E)-1,7-Bis(3,5-di-tert-butyl-4-hydroxyphenyl)-1,6-heptadiene-3,5-dione], the melting point was 192 to 196 °C. Also, in series [1], the “restoration of F508del-CFTR protein at the plasma membrane (iodide efflux)” value was “able to restore the F508del-CFTR protein at the plasma membrane of CF cells”. Also, in series [2], the CC50 at 2 h was greater than 100 µM and the CC50 at 24 h was greater than 100 µM. Moreover, the “wild-type CFTR chloride channel activity” value at wt-CFTR channel is given as “insignificant wild-type CFTR chloride channel activity”. In addition, the “intracellular mobilization of Ca2+” value in the series on JME/CF15 cells was “induced intracellular mobilization of Ca^2+”.

On to `COc1cc(/C=C/C(=O)CC(=O)/C=C/c2ccc(O)c(OC)c2)ccc1O` [Curcumin, (1E,6E)-1,7-Bis(4-hydroxy-3-methoxyphenyl)-1,6-heptadiene-3,5-dione, reference compound], for which, in series [2], the CC50 at 2 h amounted to 50.1 ± 1.1 µM and the CC50 at 24 h is 42.7 ± 1 µM.
